Assay results from ChEMBL document CHEMBL3991601, “The target landscape of clinical kinase drugs” (Science, 2017).
Active and inactive are the calls of the source.

Experiments:
[1] = target: Serine/threonine-protein kinase/endoribonuclease IRE2 (Homo sapiens, UniProt Q76MJ5)
[2] = target: Casein kinase I isoform gamma-1 (Homo sapiens, UniProt Q9HCP0)
[3] = target: Tyrosine-protein kinase ABL2 (Homo sapiens, UniProt P42684)
[4] = target: T1, Glycogen phosphorylase, brain form (Homo sapiens, UniProt P11216)
T1 sequence (P11216 whole entry): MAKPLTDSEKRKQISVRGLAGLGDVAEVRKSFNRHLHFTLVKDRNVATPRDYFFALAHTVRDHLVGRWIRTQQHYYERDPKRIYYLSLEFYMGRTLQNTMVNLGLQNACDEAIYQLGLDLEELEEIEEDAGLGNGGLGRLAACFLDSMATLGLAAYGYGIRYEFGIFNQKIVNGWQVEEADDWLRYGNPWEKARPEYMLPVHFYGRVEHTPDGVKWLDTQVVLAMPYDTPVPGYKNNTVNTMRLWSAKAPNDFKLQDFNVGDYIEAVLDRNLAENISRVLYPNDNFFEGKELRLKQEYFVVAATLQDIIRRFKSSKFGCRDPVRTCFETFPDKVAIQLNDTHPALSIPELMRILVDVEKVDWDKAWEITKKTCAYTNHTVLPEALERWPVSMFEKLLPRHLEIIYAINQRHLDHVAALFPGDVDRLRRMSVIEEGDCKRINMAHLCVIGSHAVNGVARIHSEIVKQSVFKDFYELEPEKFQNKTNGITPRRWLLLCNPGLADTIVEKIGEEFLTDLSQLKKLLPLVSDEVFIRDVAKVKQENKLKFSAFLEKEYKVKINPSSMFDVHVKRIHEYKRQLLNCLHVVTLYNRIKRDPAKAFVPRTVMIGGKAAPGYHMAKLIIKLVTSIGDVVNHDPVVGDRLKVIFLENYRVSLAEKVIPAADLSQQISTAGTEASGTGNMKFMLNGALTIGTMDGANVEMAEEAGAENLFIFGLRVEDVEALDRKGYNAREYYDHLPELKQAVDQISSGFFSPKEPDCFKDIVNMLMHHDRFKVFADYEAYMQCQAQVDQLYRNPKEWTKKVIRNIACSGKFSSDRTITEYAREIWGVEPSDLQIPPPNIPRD

[5] = target: ATP-dependent RNA helicase DDX3X (Homo sapiens, UniProt O00571)
[6] = target: Rho-associated protein kinase 2 (Homo sapiens, UniProt O75116)
[7] = target: Mitogen-activated protein kinase kinase kinase kinase 1 (Homo sapiens, UniProt Q92918)
[8] = target: Chromodomain-helicase-DNA-binding protein 4 (Homo sapiens, UniProt Q14839)
[9] = target: T2, EKC/KEOPS complex subunit TP53RK (Homo sapiens, UniProt Q96S44)
T2 sequence (Q96S44 whole entry): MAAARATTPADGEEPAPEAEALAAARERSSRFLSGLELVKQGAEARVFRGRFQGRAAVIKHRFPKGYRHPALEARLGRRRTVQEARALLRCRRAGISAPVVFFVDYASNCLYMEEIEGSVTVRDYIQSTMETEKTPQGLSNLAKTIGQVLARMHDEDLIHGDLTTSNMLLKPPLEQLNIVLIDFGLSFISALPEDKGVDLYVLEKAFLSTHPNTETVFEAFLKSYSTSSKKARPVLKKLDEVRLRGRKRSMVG

[10] = target: RAC-alpha serine/threonine-protein kinase (Homo sapiens, UniProt P31749)
[11] = target: Bone morphogenetic protein receptor type-1B (Homo sapiens, UniProt O00238)
[12] = target: DNA topoisomerase 2-beta (Homo sapiens, UniProt Q02880)
[13] = target: T3, Mitogen-activated protein kinase kinase kinase 2 (Homo sapiens, UniProt Q9Y2U5)
T3 sequence (Q9Y2U5 whole entry): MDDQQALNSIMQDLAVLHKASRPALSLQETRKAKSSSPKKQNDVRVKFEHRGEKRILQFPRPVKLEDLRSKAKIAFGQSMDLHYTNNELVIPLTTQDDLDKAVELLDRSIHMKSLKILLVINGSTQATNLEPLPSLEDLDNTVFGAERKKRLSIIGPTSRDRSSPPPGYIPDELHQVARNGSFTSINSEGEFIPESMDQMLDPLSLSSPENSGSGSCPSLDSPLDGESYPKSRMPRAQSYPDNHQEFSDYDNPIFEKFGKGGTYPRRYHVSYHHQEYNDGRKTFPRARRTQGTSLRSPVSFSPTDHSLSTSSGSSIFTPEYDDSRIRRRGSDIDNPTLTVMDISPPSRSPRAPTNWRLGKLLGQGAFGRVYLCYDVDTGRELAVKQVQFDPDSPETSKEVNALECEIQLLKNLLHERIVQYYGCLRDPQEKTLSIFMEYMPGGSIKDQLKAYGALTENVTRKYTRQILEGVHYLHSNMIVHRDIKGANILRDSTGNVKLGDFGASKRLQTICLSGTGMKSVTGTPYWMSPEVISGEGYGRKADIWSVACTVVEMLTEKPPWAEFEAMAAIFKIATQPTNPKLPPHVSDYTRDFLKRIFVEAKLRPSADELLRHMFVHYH

[14] = target: T4, Membrane-associated tyrosine- and threonine-specific cdc2-inhibitory kinase (Homo sapiens, UniProt Q99640)
T4 sequence (Q99640 whole entry): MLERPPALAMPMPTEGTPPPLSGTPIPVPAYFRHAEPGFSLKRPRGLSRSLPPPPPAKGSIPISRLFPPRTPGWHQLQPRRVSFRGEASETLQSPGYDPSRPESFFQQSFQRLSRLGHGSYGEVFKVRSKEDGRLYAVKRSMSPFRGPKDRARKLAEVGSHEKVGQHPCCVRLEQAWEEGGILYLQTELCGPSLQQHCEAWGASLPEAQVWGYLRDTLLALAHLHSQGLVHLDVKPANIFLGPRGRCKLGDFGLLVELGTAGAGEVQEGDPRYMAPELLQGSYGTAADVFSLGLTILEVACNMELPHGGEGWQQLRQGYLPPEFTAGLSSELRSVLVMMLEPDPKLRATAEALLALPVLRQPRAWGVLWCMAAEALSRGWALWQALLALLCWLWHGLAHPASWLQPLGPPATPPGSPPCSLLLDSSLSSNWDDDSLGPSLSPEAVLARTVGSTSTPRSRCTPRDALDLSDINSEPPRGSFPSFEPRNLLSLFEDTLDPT

Measured: Kd
Further: in the data inactive means no Kd found up to 30 µM.

Chain of Rho-associated protein kinase 2 (O75116 whole entry): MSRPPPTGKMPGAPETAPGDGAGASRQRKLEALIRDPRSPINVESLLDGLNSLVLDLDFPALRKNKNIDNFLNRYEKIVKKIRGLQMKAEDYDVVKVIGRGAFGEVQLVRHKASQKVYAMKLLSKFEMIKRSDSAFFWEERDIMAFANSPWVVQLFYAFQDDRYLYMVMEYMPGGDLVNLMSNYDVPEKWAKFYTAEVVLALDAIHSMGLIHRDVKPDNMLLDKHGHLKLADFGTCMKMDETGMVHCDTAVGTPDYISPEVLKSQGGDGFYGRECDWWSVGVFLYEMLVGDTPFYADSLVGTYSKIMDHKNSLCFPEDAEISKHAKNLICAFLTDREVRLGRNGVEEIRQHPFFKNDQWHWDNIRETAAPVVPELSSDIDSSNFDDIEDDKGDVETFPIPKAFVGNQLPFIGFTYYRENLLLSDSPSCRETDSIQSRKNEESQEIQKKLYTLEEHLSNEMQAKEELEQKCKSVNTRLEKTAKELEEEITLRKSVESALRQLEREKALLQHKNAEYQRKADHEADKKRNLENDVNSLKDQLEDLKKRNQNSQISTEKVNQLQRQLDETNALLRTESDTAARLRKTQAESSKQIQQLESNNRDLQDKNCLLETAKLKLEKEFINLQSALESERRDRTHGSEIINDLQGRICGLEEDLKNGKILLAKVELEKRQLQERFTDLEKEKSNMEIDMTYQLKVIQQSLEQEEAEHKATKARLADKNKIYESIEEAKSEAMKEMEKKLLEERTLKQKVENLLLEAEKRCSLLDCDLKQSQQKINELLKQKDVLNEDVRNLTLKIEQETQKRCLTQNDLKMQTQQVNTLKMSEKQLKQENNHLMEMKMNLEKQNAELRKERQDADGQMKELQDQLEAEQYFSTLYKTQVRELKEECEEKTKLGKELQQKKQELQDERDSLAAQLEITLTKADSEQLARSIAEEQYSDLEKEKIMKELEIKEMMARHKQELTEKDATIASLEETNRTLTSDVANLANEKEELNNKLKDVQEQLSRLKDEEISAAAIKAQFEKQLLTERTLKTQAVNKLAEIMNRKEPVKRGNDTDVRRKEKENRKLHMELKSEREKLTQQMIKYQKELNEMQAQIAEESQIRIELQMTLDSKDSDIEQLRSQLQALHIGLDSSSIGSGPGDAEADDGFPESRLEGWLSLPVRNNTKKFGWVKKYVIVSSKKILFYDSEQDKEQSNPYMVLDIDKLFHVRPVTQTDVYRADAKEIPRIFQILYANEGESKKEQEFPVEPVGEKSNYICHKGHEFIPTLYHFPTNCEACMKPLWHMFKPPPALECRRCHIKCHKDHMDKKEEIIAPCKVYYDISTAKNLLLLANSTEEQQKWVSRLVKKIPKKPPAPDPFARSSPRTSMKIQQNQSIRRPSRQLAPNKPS
Chain of Bone morphogenetic protein receptor type-1B (O00238 whole entry): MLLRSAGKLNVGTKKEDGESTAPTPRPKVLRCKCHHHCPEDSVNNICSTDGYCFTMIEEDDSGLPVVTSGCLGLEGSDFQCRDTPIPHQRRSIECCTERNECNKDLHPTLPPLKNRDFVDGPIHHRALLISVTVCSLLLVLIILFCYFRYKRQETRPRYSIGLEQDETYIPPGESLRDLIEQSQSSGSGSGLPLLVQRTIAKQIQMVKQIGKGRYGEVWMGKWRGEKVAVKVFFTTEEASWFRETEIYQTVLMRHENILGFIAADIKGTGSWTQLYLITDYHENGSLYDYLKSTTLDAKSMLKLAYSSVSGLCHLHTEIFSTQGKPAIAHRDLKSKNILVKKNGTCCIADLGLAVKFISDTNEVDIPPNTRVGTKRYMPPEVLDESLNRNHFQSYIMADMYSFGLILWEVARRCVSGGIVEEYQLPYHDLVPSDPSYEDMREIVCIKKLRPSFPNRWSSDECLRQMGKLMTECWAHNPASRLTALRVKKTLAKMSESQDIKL
Chain of ATP-dependent RNA helicase DDX3X (O00571 whole entry): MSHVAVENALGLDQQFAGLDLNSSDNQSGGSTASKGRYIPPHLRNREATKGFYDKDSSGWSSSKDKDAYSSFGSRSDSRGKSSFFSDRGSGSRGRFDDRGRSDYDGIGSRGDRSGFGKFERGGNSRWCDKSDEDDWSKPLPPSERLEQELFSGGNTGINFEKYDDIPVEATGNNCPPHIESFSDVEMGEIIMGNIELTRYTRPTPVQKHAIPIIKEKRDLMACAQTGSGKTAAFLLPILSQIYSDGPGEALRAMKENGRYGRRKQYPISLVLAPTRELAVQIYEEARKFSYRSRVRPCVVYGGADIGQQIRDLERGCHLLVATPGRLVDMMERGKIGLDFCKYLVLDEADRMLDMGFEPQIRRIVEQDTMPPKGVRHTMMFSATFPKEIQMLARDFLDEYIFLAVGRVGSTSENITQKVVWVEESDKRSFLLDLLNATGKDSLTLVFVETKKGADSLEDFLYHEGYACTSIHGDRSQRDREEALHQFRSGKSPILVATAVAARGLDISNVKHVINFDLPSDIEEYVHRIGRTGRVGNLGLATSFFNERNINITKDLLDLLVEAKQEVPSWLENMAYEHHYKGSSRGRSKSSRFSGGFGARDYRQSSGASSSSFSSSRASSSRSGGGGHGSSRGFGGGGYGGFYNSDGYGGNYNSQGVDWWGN
Chain of Chromodomain-helicase-DNA-binding protein 4 (Q14839 whole entry): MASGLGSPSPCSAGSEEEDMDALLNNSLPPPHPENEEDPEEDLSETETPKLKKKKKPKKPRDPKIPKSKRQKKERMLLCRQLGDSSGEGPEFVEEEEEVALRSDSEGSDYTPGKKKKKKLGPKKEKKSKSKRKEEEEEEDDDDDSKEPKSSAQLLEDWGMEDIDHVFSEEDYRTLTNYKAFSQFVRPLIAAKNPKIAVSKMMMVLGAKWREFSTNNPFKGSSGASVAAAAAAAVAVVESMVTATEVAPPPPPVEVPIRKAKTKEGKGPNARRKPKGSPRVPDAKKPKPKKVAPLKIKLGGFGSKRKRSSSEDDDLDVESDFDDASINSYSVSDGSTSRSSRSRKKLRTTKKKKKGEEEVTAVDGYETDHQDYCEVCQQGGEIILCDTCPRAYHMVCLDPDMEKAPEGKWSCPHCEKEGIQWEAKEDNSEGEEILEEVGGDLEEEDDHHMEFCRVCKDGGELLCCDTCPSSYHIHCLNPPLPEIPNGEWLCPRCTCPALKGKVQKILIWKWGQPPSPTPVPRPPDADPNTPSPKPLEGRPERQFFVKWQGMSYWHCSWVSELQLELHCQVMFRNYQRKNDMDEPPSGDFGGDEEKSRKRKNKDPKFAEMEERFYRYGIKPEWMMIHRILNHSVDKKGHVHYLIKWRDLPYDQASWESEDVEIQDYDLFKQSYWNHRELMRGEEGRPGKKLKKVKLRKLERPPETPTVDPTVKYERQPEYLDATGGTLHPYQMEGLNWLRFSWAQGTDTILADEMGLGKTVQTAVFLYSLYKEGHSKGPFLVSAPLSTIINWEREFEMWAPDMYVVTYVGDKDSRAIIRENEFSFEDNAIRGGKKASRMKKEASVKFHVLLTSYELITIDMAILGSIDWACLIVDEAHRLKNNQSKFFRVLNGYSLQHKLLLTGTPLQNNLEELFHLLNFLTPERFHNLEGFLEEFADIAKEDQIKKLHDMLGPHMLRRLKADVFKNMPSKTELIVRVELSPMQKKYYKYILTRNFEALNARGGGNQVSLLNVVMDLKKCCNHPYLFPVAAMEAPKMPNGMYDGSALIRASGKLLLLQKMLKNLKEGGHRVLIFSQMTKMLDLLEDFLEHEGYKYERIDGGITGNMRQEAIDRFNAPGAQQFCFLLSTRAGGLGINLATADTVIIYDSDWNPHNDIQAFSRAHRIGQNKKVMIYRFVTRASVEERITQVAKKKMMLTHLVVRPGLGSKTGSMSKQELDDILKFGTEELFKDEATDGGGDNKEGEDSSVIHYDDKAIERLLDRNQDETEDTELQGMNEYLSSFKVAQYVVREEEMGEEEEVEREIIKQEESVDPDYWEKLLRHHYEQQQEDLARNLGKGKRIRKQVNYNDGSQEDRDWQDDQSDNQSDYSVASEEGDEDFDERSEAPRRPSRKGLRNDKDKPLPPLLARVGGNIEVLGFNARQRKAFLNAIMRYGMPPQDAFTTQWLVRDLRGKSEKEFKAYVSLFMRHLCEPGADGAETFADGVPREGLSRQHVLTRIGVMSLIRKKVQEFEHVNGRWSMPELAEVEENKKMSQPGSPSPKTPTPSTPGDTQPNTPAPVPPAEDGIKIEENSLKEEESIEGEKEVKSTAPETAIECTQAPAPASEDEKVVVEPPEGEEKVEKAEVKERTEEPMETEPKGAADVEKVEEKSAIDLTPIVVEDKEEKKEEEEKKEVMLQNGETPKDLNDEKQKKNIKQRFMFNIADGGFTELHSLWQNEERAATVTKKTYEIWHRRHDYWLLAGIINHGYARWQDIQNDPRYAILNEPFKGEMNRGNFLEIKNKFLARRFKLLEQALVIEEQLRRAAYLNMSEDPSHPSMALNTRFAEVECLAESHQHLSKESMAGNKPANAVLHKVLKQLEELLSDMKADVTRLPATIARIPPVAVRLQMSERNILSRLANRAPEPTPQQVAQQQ
Chain of Casein kinase I isoform gamma-1 (Q9HCP0 whole entry, canonical isoform): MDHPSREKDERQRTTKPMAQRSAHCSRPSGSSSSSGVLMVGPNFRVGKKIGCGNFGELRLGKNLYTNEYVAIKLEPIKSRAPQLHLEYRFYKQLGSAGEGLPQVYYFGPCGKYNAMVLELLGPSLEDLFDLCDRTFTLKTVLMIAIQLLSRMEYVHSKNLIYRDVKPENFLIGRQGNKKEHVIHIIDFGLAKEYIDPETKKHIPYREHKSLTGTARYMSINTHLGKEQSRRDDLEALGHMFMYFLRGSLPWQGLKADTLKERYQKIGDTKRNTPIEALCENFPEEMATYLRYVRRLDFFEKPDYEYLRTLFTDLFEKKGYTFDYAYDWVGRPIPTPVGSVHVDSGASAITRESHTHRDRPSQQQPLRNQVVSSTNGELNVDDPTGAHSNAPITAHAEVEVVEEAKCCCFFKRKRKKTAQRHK

COc1ccc(S(=O)(=O)N(C(C)=O)c2ccccc2/C=C/c2cc[n+]([O-])cc2)cc1 [HMN-214]
inactive: [1] > 30 µM | [2] > 30 µM | [3] > 30 µM | [4] > 30 µM | [5] > 30 µM | [6] > 30 µM | [7] > 30 µM | [8] > 30 µM | [9] > 30 µM | [10] > 30 µM | [11] > 30 µM | [12] > 30 µM | [13] > 30 µM | [14] > 30 µM

O=C(Nc1cc(C(F)(F)F)cc(C(F)(F)F)c1)c1cc(Cl)ccc1O [IMD-0354]
inactive: [1] > 30 µM | [2] > 30 µM | [3] > 30 µM | [4] > 30 µM | [5] > 30 µM | [6] > 30 µM | [7] > 30 µM | [8] > 30 µM | [9] > 30 µM | [10] > 30 µM | [11] > 30 µM | [12] > 30 µM | [13] > 30 µM | [14] > 30 µM

CNC(=O)c1cccc2cc(Oc3ccnc4cc(OCC5(N)CC5)c(OC)cc34)ccc12 [LUCITANIB]
inactive: [1] > 30 µM | [2] > 30 µM | [3] > 30 µM | [4] > 30 µM | [5] > 30 µM | [6] > 30 µM | [7] > 30 µM | [8] > 30 µM | [9] > 30 µM | [10] > 30 µM | [11] > 30 µM | [12] > 30 µM | [13] > 30 µM | [14] > 30 µM

CN(C[C@@H]1COCCO1)S(=O)(=O)Nc1ccc2ccc3ncc(-c4cnn(C)c4)cc3c(=O)c2c1 [MK-2461]
inactive: [1] > 30 µM | [2] > 30 µM | [3] > 30 µM | [4] > 30 µM | [5] > 30 µM | [6] > 30 µM | [7] > 30 µM | [8] > 30 µM | [9] > 30 µM | [10] > 30 µM | [11] > 30 µM | [12] > 30 µM | [13] > 30 µM | [14] > 30 µM

Cn1cc(-c2cnc3ccc4ccc(CS(=O)(=O)NCc5ccccn5)cc4c(=O)c3c2)cn1 [MK-8033]
inactive: [1] > 30 µM | [2] > 30 µM | [3] > 30 µM | [4] > 30 µM | [5] > 30 µM | [6] > 30 µM | [7] > 30 µM | [8] > 30 µM | [9] > 30 µM | [10] > 30 µM | [11] > 30 µM | [12] > 30 µM | [13] > 30 µM | [14] > 30 µM

FC(F)(F)c1ccc(/C=C/c2nc(COc3ccc(CCCCn4ccnn4)cc3)co2)cc1 [MUBRITINIB]
inactive: [1] > 30 µM | [2] > 30 µM | [3] > 30 µM | [4] > 30 µM | [5] > 30 µM | [6] > 30 µM | [7] > 30 µM | [8] > 30 µM | [9] > 30 µM | [10] > 30 µM | [11] > 30 µM | [12] > 30 µM | [13] > 30 µM | [14] > 30 µM

COc1ncc(-c2ccc3nccc(-c4ccnnc4)c3c2)cc1NS(=O)(=O)c1ccc(F)cc1F [OMIPALISIB]
inactive: [1] > 30 µM | [2] > 30 µM | [3] > 30 µM | [4] > 30 µM | [5] > 30 µM | [6] > 30 µM | [7] > 30 µM | [8] > 30 µM | [9] > 30 µM | [10] > 30 µM | [11] > 30 µM | [12] > 30 µM | [13] > 30 µM | [14] > 30 µM

CCCCCCCCCCCCCCCCCCOP(=O)([O-])OC1CC[N+](C)(C)CC1 [PERIFOSINE]
inactive: [1] > 30 µM | [2] > 30 µM | [3] > 30 µM | [4] > 30 µM | [5] > 30 µM | [6] > 30 µM | [7] > 30 µM | [8] > 30 µM | [9] > 30 µM | [10] > 30 µM | [11] > 30 µM | [12] > 30 µM | [13] > 30 µM | [14] > 30 µM
